Reference: paper PMC4393269, “Carvacrol Codrugs: A New Approach in the Antimicrobial Plan” (PLoS ONE, 2015)
Where two headings read alike, the source gives them in different places.

Experiments:
P. aeruginosa ATCC 9027 = assay: Antibiofilm assay on established biofilm (BIC/BEC); format: cell-based
[1] = Lipophilicity LogP (experimental); format: physicochemical; details: mean of three experiments (SD)
From the text: Table 3 Physicochemical properties of carvacrol codrug 4. | column: Lipophilicity / LogP ^a

[2] = Drug stability in simulated intestinal fluid with pancreatin; format: in vitro ADME; details: 37°C, read-out: t½ (converted)
Description: (§1) The HPLC system consisted of a Waters 600 HPLC pump (Waters Corporation, Milford, MA, USA), equipped with a Waters 2996 photodiode array detector. The column was a Kinetex RP-C8 column (3.0 x 150 mm, 5 μm). The mobile phase consisted of 0.1% TFA in acetonitrile/0.1% TFA in 95% H2O and 5% acetonitrile 50:50, under isocratic conditions at a flow rate of 1 mL/min. The UV detector was set at a length of 220 nm.
(§2) To assess enzymatic stability, hydrochloric buffer with pepsin (10 or 40 mg/mL) and phosphate buffer with pancreatin (10 or 40 mg/mL) were used. Buffer solution (250 μL) was preincubated at 37°C and 50 μL of drug stock solution (50 μM in ethanol and FASSIF 1:9) were added and shaken at 37°C and 650 rpm. Samples of 100 μL were withdrawn at various times and 100 µL of ice-cold acetonitrile containing 0.5 v/v% formic acid were added to stop enzymatic activity. Samples were vortexed and centrifuged at 2°C and 10000 rpm for 10 min. The drug content in the supernatant was analyzed by HPLC.

pancreatin = assay: as above; format: in vitro ADME; details: 37°C
Description: as §1, §2

[3] = SIF pH 7.4, pancreatin 10 mg/mL

BEC as multiple of MIC (P. aeruginosa ATCC 9027; P. aeruginosa ATCC 9027): 2MIC
logP [1]: 1.21
half-life at 8.3 µM ([2]; simulated intestinal fluid with pancreatin 10 mg/mL, pH 7.4, SIF pH 7.4, pancreatin 10 mg/mL): 5.5 h
half-life at 8.3 µM ([2]; simulated intestinal fluid with pancreatin 40 mg/mL, pH 7.4, SIF pH 7.4, pancreatin 40 mg/mL): ~1 h
kobs (pancreatin; [3]): 0.126 (± 0.003) h^-1
t½ (pancreatin; [3]): 5.51 (± 0.13) h
kobs (pancreatin; SIF pH 7.4, pancreatin 40 mg/mL): 0.83 (± 0.02) h^-1
SMILES: C=CCSC[C@H](NC(C)=O)C(=O)Oc1cc(C(C)C)ccc1C [codrug 4, N-Ac-Cys(Allyl)-CAR]
BEC (P. aeruginosa ATCC 9027; P. aeruginosa ATCC 9027 established biofilm): 10 mg/mL
BIC (P. aeruginosa ATCC 9027; P. aeruginosa ATCC 9027 established biofilm, 24 h): 5 mg/mL
